In PubChem BioAssay AID2060503 (Molecular Pharmacology Branch, DTP, NCI, 2025):
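Note: spheroids exposed to agents for 7 days before readout; percent viability relative to DMSO vehicle control taken as 100%.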

These compounds were tested on 817829-284-R-J1-PDC complex spheroids, viability (assay: Anticancer human tumor 817829-284-R-J1-PDC patient-derived colon adenocarcinoma cell line growth inhibition [GQUAD]). Settings: second compound 10 µM; first compound 0.0316 µM; hits give low values.
Method in brief: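 Viability of tumor cells grown as complex spheroids with endothelial and stromal cells, exposed to drug combinations. Top concentration at or near clinical Cmax (else 10 microM), diluted in half-log increments.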
Work on `CCc1c2c(nc3ccc(O)cc13)-c1cc3c(c(=O)n1C2)COC(=O)[C@]3(O)CC` + Cc1[nH]c2ccc(F)cc2c1-c1nc2c3cccnc3c3ncccc3c2[nH]1 yielded a viability, T/C of 5.66%. For `COc1cc(C2c3cc4c(cc3C(OC3OC5COC(C)OC5C(O)C3O)C3COC(=O)C23)OCO4)cc(OC)c1O` (configuration not stated) + Cc1[nH]c2ccc(F)cc2c1-c1nc2c3cccnc3c3ncccc3c2[nH]1, the viability, T/C was 60.5%. For `COc1cccc2c1C(=O)c1c(O)c3c(c(O)c1C2=O)CC(O)(C(=O)CO)CC3OC1CC(N)C(O)C(C)O1` (configuration not stated) + Cc1[nH]c2ccc(F)cc2c1-c1nc2c3cccnc3c3ncccc3c2[nH]1, the viability, T/C was 22.1%. `Cc1cccc(N(C)C(=O)C2C(O)CCN2c2nc(C)cc(C(F)(F)F)c2C#N)c1` (configuration not stated) + Cc1[nH]c2ccc(F)cc2c1-c1nc2c3cccnc3c3ncccc3c2[nH]1 was tested, and the viability, T/C was 83.3%. Compound `O=C(c1cc(Cc2n[nH]c(=O)c3ccccc23)ccc1F)N1CCN(C(=O)C2CC2)CC1` + Cc1[nH]c2ccc(F)cc2c1-c1nc2c3cccnc3c3ncccc3c2[nH]1 has a viability, T/C of 45.4%.

Same assay, conditions: second compound 10 µM; first compound 0.0999 µM; hits give low values
`CCc1c2c(nc3ccc(O)cc13)-c1cc3c(c(=O)n1C2)COC(=O)[C@]3(O)CC` + Cc1[nH]c2ccc(F)cc2c1-c1nc2c3cccnc3c3ncccc3c2[nH]1 showed a viability, T/C of 3.66%.

Same assay, conditions: second compound 10 µM; first compound 0.1 µM; hits give low values
With `C=CC(=O)N1CCN(c2nc(=O)n(-c3c(C)ccnc3C(C)C)c3nc(-c4c(O)cccc4F)c(F)cc23)C(C)C1` (configuration not stated) + Cc1[nH]c2ccc(F)cc2c1-c1nc2c3cccnc3c3ncccc3c2[nH]1 the viability, T/C was 18.4%. `CC(C)n1c(=O)n(C)c2cnc3cc(F)c(-c4ccc(OCCCN5CCCCC5)nc4)cc3c21` + Cc1[nH]c2ccc(F)cc2c1-c1nc2c3cccnc3c3ncccc3c2[nH]1 showed a viability, T/C of 73.3%. For `COc1cc(C2c3cc4c(cc3C(OC3OC5COC(C)OC5C(O)C3O)C3COC(=O)C23)OCO4)cc(OC)c1O` (configuration not stated) + Cc1[nH]c2ccc(F)cc2c1-c1nc2c3cccnc3c3ncccc3c2[nH]1, the viability, T/C was 26.2%. `COc1cccc2c1C(=O)c1c(O)c3c(c(O)c1C2=O)CC(O)(C(=O)CO)CC3OC1CC(N)C(O)C(C)O1` (configuration not stated) + Cc1[nH]c2ccc(F)cc2c1-c1nc2c3cccnc3c3ncccc3c2[nH]1 showed a viability, T/C of 12.8%. For `Cc1cccc(N(C)C(=O)C2C(O)CCN2c2nc(C)cc(C(F)(F)F)c2C#N)c1` (configuration not stated) + Cc1[nH]c2ccc(F)cc2c1-c1nc2c3cccnc3c3ncccc3c2[nH]1, the viability, T/C was 96.4%. Compound `O=C(c1cc(Cc2n[nH]c(=O)c3ccccc23)ccc1F)N1CCN(C(=O)C2CC2)CC1` + Cc1[nH]c2ccc(F)cc2c1-c1nc2c3cccnc3c3ncccc3c2[nH]1 has a viability, T/C of 46.9%.

Same assay, conditions: second compound 10 µM; first compound 0.316 µM; hits give low values
In the case of `C=CC(=O)N1CCN(c2nc(=O)n(-c3c(C)ccnc3C(C)C)c3nc(-c4c(O)cccc4F)c(F)cc23)C(C)C1` (configuration not stated) + Cc1[nH]c2ccc(F)cc2c1-c1nc2c3cccnc3c3ncccc3c2[nH]1, the viability, T/C is reported as 44.3%. `CC(C)n1c(=O)n(C)c2cnc3cc(F)c(-c4ccc(OCCCN5CCCCC5)nc4)cc3c21` + Cc1[nH]c2ccc(F)cc2c1-c1nc2c3cccnc3c3ncccc3c2[nH]1 gave a viability, T/C of 49.2%. Work on `CCc1c2c(nc3ccc(O)cc13)-c1cc3c(c(=O)n1C2)COC(=O)[C@]3(O)CC` + Cc1[nH]c2ccc(F)cc2c1-c1nc2c3cccnc3c3ncccc3c2[nH]1 yielded a viability, T/C of 1.35%. `COc1cc(C2c3cc4c(cc3C(OC3OC5COC(C)OC5C(O)C3O)C3COC(=O)C23)OCO4)cc(OC)c1O` (configuration not stated) + Cc1[nH]c2ccc(F)cc2c1-c1nc2c3cccnc3c3ncccc3c2[nH]1 gave a viability, T/C of 9.53%. Compound `COc1cccc2c1C(=O)c1c(O)c3c(c(O)c1C2=O)CC(O)(C(=O)CO)CC3OC1CC(N)C(O)C(C)O1` (configuration not stated) + Cc1[nH]c2ccc(F)cc2c1-c1nc2c3cccnc3c3ncccc3c2[nH]1 has a viability, T/C of 11.3%. With `Cc1cccc(N(C)C(=O)C2C(O)CCN2c2nc(C)cc(C(F)(F)F)c2C#N)c1` (configuration not stated) + Cc1[nH]c2ccc(F)cc2c1-c1nc2c3cccnc3c3ncccc3c2[nH]1 the viability, T/C was 96.4%. `O=C(c1cc(Cc2n[nH]c(=O)c3ccccc23)ccc1F)N1CCN(C(=O)C2CC2)CC1` + Cc1[nH]c2ccc(F)cc2c1-c1nc2c3cccnc3c3ncccc3c2[nH]1 was tested, and the viability, T/C was 56.7%.

Same assay, conditions: second compound 10 µM; first compound 1 µM; hits give low values
`C=CC(=O)N1CCN(c2nc(=O)n(-c3c(C)ccnc3C(C)C)c3nc(-c4c(O)cccc4F)c(F)cc23)C(C)C1` (configuration not stated) + Cc1[nH]c2ccc(F)cc2c1-c1nc2c3cccnc3c3ncccc3c2[nH]1 was tested, and the viability, T/C was 15.1%. For `CC(C)n1c(=O)n(C)c2cnc3cc(F)c(-c4ccc(OCCCN5CCCCC5)nc4)cc3c21` + Cc1[nH]c2ccc(F)cc2c1-c1nc2c3cccnc3c3ncccc3c2[nH]1, the viability, T/C was 46.5%. `COc1cc(C2c3cc4c(cc3C(OC3OC5COC(C)OC5C(O)C3O)C3COC(=O)C23)OCO4)cc(OC)c1O` (configuration not stated) + Cc1[nH]c2ccc(F)cc2c1-c1nc2c3cccnc3c3ncccc3c2[nH]1 showed a viability, T/C of 8.4%. Compound `COc1cccc2c1C(=O)c1c(O)c3c(c(O)c1C2=O)CC(O)(C(=O)CO)CC3OC1CC(N)C(O)C(C)O1` (configuration not stated) + Cc1[nH]c2ccc(F)cc2c1-c1nc2c3cccnc3c3ncccc3c2[nH]1 has a viability, T/C of 3.41%. `Cc1cccc(N(C)C(=O)C2C(O)CCN2c2nc(C)cc(C(F)(F)F)c2C#N)c1` (configuration not stated) + Cc1[nH]c2ccc(F)cc2c1-c1nc2c3cccnc3c3ncccc3c2[nH]1 was tested, and the viability, T/C was 55.3%. Work on `O=C(c1cc(Cc2n[nH]c(=O)c3ccccc23)ccc1F)N1CCN(C(=O)C2CC2)CC1` + Cc1[nH]c2ccc(F)cc2c1-c1nc2c3cccnc3c3ncccc3c2[nH]1 yielded a viability, T/C of 54.7%.

Same assay, conditions: second compound 10 µM; first compound 3.16 µM; hits give low values
In the case of `C=CC(=O)N1CCN(c2nc(=O)n(-c3c(C)ccnc3C(C)C)c3nc(-c4c(O)cccc4F)c(F)cc23)C(C)C1` (configuration not stated) + Cc1[nH]c2ccc(F)cc2c1-c1nc2c3cccnc3c3ncccc3c2[nH]1, the viability, T/C is reported as 11.6%. For `CC(C)n1c(=O)n(C)c2cnc3cc(F)c(-c4ccc(OCCCN5CCCCC5)nc4)cc3c21` + Cc1[nH]c2ccc(F)cc2c1-c1nc2c3cccnc3c3ncccc3c2[nH]1, the viability, T/C was 21.9%. `COc1cc(C2c3cc4c(cc3C(OC3OC5COC(C)OC5C(O)C3O)C3COC(=O)C23)OCO4)cc(OC)c1O` (configuration not stated) + Cc1[nH]c2ccc(F)cc2c1-c1nc2c3cccnc3c3ncccc3c2[nH]1 showed a viability, T/C of 6.82%. Compound `COc1cccc2c1C(=O)c1c(O)c3c(c(O)c1C2=O)CC(O)(C(=O)CO)CC3OC1CC(N)C(O)C(C)O1` (configuration not stated) + Cc1[nH]c2ccc(F)cc2c1-c1nc2c3cccnc3c3ncccc3c2[nH]1 has a viability, T/C of 0.48%. For `Cc1cccc(N(C)C(=O)C2C(O)CCN2c2nc(C)cc(C(F)(F)F)c2C#N)c1` (configuration not stated) + Cc1[nH]c2ccc(F)cc2c1-c1nc2c3cccnc3c3ncccc3c2[nH]1, the viability, T/C was 82.6%. `O=C(c1cc(Cc2n[nH]c(=O)c3ccccc23)ccc1F)N1CCN(C(=O)C2CC2)CC1` + Cc1[nH]c2ccc(F)cc2c1-c1nc2c3cccnc3c3ncccc3c2[nH]1 gave a viability, T/C of 37.6%.

Same assay, conditions: second compound 10 µM; first compound 10 µM; hits give low values
`C=CC(=O)N1CCN(c2nc(=O)n(-c3c(C)ccnc3C(C)C)c3nc(-c4c(O)cccc4F)c(F)cc23)C(C)C1` (configuration not stated) + Cc1[nH]c2ccc(F)cc2c1-c1nc2c3cccnc3c3ncccc3c2[nH]1 showed a viability, T/C of 17.1%. `CC(C)n1c(=O)n(C)c2cnc3cc(F)c(-c4ccc(OCCCN5CCCCC5)nc4)cc3c21` + Cc1[nH]c2ccc(F)cc2c1-c1nc2c3cccnc3c3ncccc3c2[nH]1 was tested, and the viability, T/C was 5.4%. Compound `COc1cc(C2c3cc4c(cc3C(OC3OC5COC(C)OC5C(O)C3O)C3COC(=O)C23)OCO4)cc(OC)c1O` (configuration not stated) + Cc1[nH]c2ccc(F)cc2c1-c1nc2c3cccnc3c3ncccc3c2[nH]1 has a viability, T/C of 2.64%. `COc1cccc2c1C(=O)c1c(O)c3c(c(O)c1C2=O)CC(O)(C(=O)CO)CC3OC1CC(N)C(O)C(C)O1` (configuration not stated) + Cc1[nH]c2ccc(F)cc2c1-c1nc2c3cccnc3c3ncccc3c2[nH]1 was tested, and the viability, T/C was 0.46%. In the case of `Cc1cccc(N(C)C(=O)C2C(O)CCN2c2nc(C)cc(C(F)(F)F)c2C#N)c1` (configuration not stated) + Cc1[nH]c2ccc(F)cc2c1-c1nc2c3cccnc3c3ncccc3c2[nH]1, the viability, T/C is reported as 63.2%. `O=C(c1cc(Cc2n[nH]c(=O)c3ccccc23)ccc1F)N1CCN(C(=O)C2CC2)CC1` + Cc1[nH]c2ccc(F)cc2c1-c1nc2c3cccnc3c3ncccc3c2[nH]1 was tested, and the viability, T/C was 20.7%.
